# Laboratory results reported in ChEMBL document CHEMBL3045902, “Actions of imidacloprid, clothianidin and related neonicotinoids on nicotinic acetylcholine receptors of American cockroach neurons and their relationships with insecticidal potency” (J Pestic Sci, 2006).
# Active and inactive are the calls of the source. The rule behind the calls is not given here.
# Experiments:
# [1] = Hydrophobicity, log K of the compound by HPLC; format: physicochemical
# Periplaneta americana = experiment: Insecticidal activity against Periplaneta americana (American cockroach) assessed as killing measured per insect at 25 to 28 degC for 24 hr in presence of piperonyl butoxide; format: functional
# [2] = biological target: T1, Nicotinic acetylcholine receptor alpha8 subunit (Periplaneta americana) (UniProt H6TY12); experiment: Agonist activity at Periplaneta americana (American cockroach) nAChR in terminal abdominal ganglion assessed as assessed as inward current by tight-seal whole cell patch clamp method relative to 100 uM ACh; format: tissue-based
# T1 sequence (whole entry): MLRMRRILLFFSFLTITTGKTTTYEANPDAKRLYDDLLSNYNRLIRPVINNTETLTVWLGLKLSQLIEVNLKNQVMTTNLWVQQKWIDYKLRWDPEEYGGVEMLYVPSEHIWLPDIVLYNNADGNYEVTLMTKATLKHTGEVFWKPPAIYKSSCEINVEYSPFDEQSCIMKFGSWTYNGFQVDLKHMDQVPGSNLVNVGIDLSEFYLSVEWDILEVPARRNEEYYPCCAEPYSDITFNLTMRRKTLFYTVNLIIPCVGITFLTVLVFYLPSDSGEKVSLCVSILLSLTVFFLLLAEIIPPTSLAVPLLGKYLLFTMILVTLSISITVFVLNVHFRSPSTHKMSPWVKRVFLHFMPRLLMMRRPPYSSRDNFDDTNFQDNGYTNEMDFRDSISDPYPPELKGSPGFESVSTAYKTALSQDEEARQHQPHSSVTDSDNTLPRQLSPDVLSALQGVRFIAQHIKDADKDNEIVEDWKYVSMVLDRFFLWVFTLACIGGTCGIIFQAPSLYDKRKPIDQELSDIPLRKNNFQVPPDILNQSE
# [3] = biological target: T2, Nicotinic acetylcholine receptor alpha8 subunit (Periplaneta americana, UniProt H6TY12); experiment: Agonist activity at Periplaneta americana (American cockroach) nAChR in terminal abdominal ganglion assessed as assessed as inward current by tight-seal whole cell patch clamp method; format: tissue-based
# T2 sequence (H6TY12 whole entry): T1 sequence (whole entry)
Compound,log K [1],pMLD (Periplaneta americana),Imax [2],EC50 [3] [nM]
O=[N+]([O-])/C=C1\NCCN1Cc1ccc(Cl)nc1,0.05,10.1,0.24,72.4
O=[N+]([O-])NC1=NCCN1Cc1ccc(Cl)nc1 [IMIDACLOPRID],0.23,,,1320
C/N=C(\NCc1ccc(Cl)nc1)N[N+](=O)[O-],0.11,9.52,0.31,1860
O=[N+]([O-])/N=C1\NCCN1Cc1ccc(Cl)nc1 [IMIDACLOPRID],,10.4,0.11,
CN/C(=N\[N+](=O)[O-])NCc1cnc(Cl)s1 [CLOTHIANIDINE],0.17,10.2,0.68,1580
CN/C(=C\[N+](=O)[O-])NCc1ccc(Cl)nc1,0.16,9.22,0.44,38.9
O=[N+]([O-])/N=C1\NCCN1Cc1cnc(Cl)s1 [IMIDACLOTHIZ],0.28,9.07,0.3,1580
CC(=O)OCC[N+](C)(C)C [ACETYLCHOLINE],,inactive,,11500
CN/C(=C\[N+](=O)[O-])NCc1cnc(Cl)s1,0.14,10.2,0.47,19.5
O=[N+]([O-])/C=C1\NCCN1Cc1cnc(Cl)s1,0.03,10.2,0.3,15.8
